We go through 32 compounds from patent publication US9676714B2, “Sulfonylindole derivatives and method for preparing the same” (Daewoong Pharmaceutical Co., Ltd., priority 2013, dated 2017).

The target of the experiment is T1, proton pump (H+/K+-ATPase) (Sus scrofa, UniProt P19156).
T1 construct: Gastric vesicles were prepared from hog stomach via centrifugal separation; from tissue; host or cells: hog stomach (gastric vesicles, method of Rabon et al. 1988)
Description: Measurement of inhibitory effects on proton pump (H+/K+-ATPase) activities. The settings on record: hog gastric vesicles, K+-specific H+/K+-ATPase activity, Tris-HCl buffer pH 7.4, 37° C. for 40 minutes, malachite green Pi readout. The experiment is classed as biochemical. In outline: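 Hog gastric vesicles in 60 mmol/l Tris-HCl pH 7.4 with 0.5% DMSO were treated with compounds at room temperature; reaction was started with 10 μl of 10 mmol/l ATP stock. Released Pi was read at 570 nm, K+-specific activity taken as the ±K+ difference. IC50 from 4-parameter logistic fit.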

Each structure is given as a SMILES string. pIC50: −log10 of the molar value. Counter-ions that a name gives are not always drawn.

T1 sequence (P19156 whole entry): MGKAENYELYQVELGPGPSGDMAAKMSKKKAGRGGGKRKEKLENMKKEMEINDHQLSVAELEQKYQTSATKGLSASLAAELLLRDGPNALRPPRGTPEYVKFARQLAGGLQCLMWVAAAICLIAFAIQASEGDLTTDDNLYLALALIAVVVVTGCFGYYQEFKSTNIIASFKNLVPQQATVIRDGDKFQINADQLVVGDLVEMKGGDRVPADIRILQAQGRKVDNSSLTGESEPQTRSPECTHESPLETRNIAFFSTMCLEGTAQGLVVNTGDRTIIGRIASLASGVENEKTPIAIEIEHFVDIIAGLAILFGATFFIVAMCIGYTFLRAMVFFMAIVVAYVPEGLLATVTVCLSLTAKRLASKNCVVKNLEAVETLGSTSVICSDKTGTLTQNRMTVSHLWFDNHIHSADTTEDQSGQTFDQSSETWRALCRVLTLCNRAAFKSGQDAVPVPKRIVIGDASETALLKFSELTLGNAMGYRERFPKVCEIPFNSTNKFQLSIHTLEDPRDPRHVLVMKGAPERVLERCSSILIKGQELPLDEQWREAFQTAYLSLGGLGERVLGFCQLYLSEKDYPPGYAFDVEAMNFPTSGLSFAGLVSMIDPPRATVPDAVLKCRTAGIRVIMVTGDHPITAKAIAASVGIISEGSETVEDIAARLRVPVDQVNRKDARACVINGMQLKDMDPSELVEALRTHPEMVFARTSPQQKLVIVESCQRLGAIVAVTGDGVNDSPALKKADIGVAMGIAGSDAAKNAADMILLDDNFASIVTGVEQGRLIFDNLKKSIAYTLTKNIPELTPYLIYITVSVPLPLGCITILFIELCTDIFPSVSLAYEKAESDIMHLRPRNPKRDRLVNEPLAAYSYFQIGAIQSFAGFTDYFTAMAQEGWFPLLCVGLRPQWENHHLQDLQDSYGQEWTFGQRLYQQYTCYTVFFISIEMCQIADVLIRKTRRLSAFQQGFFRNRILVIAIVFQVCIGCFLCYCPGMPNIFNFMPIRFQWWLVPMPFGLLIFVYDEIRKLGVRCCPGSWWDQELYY
T1 sequence (P18434 whole entry partner): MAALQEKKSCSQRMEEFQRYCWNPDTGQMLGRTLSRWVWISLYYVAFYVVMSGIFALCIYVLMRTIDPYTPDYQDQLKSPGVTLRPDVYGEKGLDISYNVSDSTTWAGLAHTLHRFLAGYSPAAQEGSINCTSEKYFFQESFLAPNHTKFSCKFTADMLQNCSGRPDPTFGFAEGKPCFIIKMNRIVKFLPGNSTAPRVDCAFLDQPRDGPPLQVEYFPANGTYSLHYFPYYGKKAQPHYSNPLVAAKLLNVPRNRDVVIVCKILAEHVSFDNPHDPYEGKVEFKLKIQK

On to `CNCc1cn(S(=O)(=O)c2ccccc2F)c2cc(Cc3ccc(C)cc3Cl)ccc12` [Example 300, 1-(6-(2-chloro-4-methylbenzyl)-1-((2-fluorophenyl)sulfonyl)-1H-indol-3-yl)-N-methylmethanamine], for which the pIC50 is 5.82. Under `CNCc1cn(S(=O)(=O)c2cccc(Cl)c2)c2cc(Cc3ccc(C)cc3Cl)ccc12` [Example 301, 1-(6-(2-chloro-4-methylbenzyl)-1-((3-chlorophenyl)sulfonyl)-1H-indol-3-yl)-N-methylmethanamine] stands 6.10; under `CNCc1cn(S(=O)(=O)c2cccc(C(F)(F)F)c2)c2cc(Cc3ccc(C)cc3Cl)ccc12` [Example 302, 1-(6-(2-chloro-4-methylbenzyl)-1-((3-(trifluoromethyl)phenyl)sulfonyl)-1H-indol-3-yl)-N-methylmethanamine], 6.49; under `CNCc1cn(S(=O)(=O)c2cccc(OC)c2)c2cc(Cc3ccc(C)cc3Cl)ccc12` [Example 303, 1-(6-(2-chloro-4-methylbenzyl)-1-((3-methoxyphenyl)sulfonyl)-1H-indol-3-yl)-N-methylmethanamine], 6.33.

Turning to `CNCc1cn(S(=O)(=O)c2cccc(OC(F)F)c2)c2cc(Cc3ccc(C)cc3Cl)ccc12` [Example 304, 1-(6-(2-chloro-4-methylbenzyl)-1-((3-(difluoromethoxy)phenyl)sulfonyl)-1H-indol-3-yl)-N-methylmethanamine], the pIC50 was 6.22. The pIC50 values of the last two compounds are within 0.2 log units of each other. Under `CNCc1cn(S(=O)(=O)c2cccc(OC(F)(F)F)c2)c2cc(Cc3ccc(C)cc3Cl)ccc12` [Example 305, 1-(6-(2-chloro-4-methylbenzyl)-1-((3-(trifluoromethoxy)phenyl)sulfonyl)-1H-indol-3-yl)-N-methylmethanamine] stands 6.21; under `CNCc1cn(S(=O)(=O)c2ccc(F)cc2)c2cc(Cc3ccc(C)cc3Cl)ccc12` [Example 306], 6.17; under `CNCc1cn(S(=O)(=O)c2ccc(OC)cc2)c2cc(Cc3ccc(C)cc3Cl)ccc12` [Example 307, 1-(6-(2-chloro-4-methylbenzyl)-1-((4-methoxyphenyl)sulfonyl)-1H-indol-3-yl)-N-methylmethanamine], 5.92. The same measure for `CNCc1cn(S(=O)(=O)c2ccc(OC(F)F)cc2)c2cc(Cc3ccc(C)cc3Cl)ccc12` [Example 308, 1-(6-(2-chloro-4-methylbenzyl)-1-((4-(difluoromethoxy)phenyl)sulfonyl)-1H-indol-3-yl)-N-methylmethanamine]: 5.87; for `CNCc1cn(S(=O)(=O)c2cccnc2)c2cc(Oc3ccccc3[N+](=O)[O-])ccc12` [Example 310, N-methyl-1-(6-(2-nitrophenoxy)-1-(pyridin-3-ylsulfonyl)-1H-indol-3-yl)methanamine hydrochloride]: 6.48. Under `CNCc1cn(S(=O)(=O)c2cccnc2)c2cc(Oc3ccc(C(F)(F)F)cc3Cl)ccc12` [Example 311, 1-(6-(2-chloro-4-(trifluoromethyl)phenoxy)-1-(pyridin-3-ylsulfonyl)-1H-indol-3-yl)-N-methylmethanamine hydrochloride] stands 5.38.

Compound `CNCc1cn(S(=O)(=O)c2cccnc2)c2cc(Oc3ncc(C(F)(F)F)cc3Cl)ccc12` [Example 312, 1-(6-((3-chloro-5-(trifluoromethyl)pyridin-2-yl)oxy)-1-(pyridin-3-ylsulfonyl)-1H-indol-3-yl)-N-methylmethanamine hydrochloride] had a pIC50 of 6.18. Under `CNCc1cn(S(=O)(=O)c2cccnc2)c2cc(Oc3ncc(F)cn3)ccc12` [Example 313, 1-(6-((5-fluoropyrimidin-2-yl)oxy)-1-(pyridin-3-ylsulfonyl)-1H-indol-3-yl)-N-methylmethanamine hydrochloride] stands 4.60; under `CNCc1cn(S(=O)(=O)c2cccnc2)c2cc(Oc3cc(Cl)ncn3)ccc12` [Example 314, 1-(6-((6-chloropyrimidin-4-yl)oxy)-1-(pyridin-3-ylsulfonyl)-1H-indol-3-yl)-N-methylmethanamine hydrochloride], 4.71; under `CCNCc1cn(S(=O)(=O)c2cccc(C(F)(F)F)c2)c2cc(Nc3ccc(OC)nc3Cl)ccc12` [Example 317, N-(2-chloro-6-methoxypyridin-3-yl)-3-((ethylamino)methyl)-1-((3-(trifluoromethyl)phenyl)sulfonyl)-1H-indol-6-amine], 5.72. The same measure for `COc1ccc(Nc2ccc3c(CN4CCCC4)cn(S(=O)(=O)c4cccc(C(F)(F)F)c4)c3c2)c(Cl)n1` [Example 318, N-(2-chloro-6-methoxypyridin-3-yl)-3-(pyrrolidin-1-ylmethyl)-1-((3-(trifluoromethyl)phenyl)sulfonyl)-1H-indol-6-amine]: 5.37; for `COc1ccc(Nc2ccc3c(CN(C)C)cn(S(=O)(=O)c4cccc(C(F)(F)F)c4)c3c2)c(Cl)n1` [Example 319, N-(2-chloro-6-methoxypyridin-3-yl)-3-((dimethylamino)methyl)-1-((3-(trifluoromethyl)phenyl)sulfonyl)-1H-indol-6-amine]: 5.91. `CNC(=O)c1cn(S(=O)(=O)c2cccc(C(F)(F)F)c2)c2cc(Nc3ccc(OC)nc3Cl)ccc12` [Example 320, 6-((2-chloro-6-methoxypyridin-3-yl)amino)-N-methyl-1-((3-(trifluoromethyl)phenyl)sulfonyl)-1H-indol-3-carboxamide] gave a pIC50 of 4.70. Under `COc1ccc(Nc2ccc3c(C(=O)N(C)C)cn(S(=O)(=O)c4cccc(C(F)(F)F)c4)c3c2)c(Cl)n1` [Example 321, 6-((2-chloro-6-methoxypyridin-3-yl)amino)-N,N-dimethyl-1-((3-(trifluoromethyl)phenyl)sulfonyl)-1H-indol-3-carboxamide] stands 5.47. Under `Cc1ccc(Nc2ccc3c(C(=O)N(C)C)cn(S(=O)(=O)c4cccnc4)c3c2)c(F)c1` [Example 322, 6-((2-fluoro-4-methylphenyl)amino)-N,N-dimethyl-1-(pyridin-3-ylsulfonyl)-1H-indol-3-carboxamide] stands 4.62; under `Cc1ccc(Nc2ccc3c(C(=O)N(C)C)cn(S(=O)(=O)c4cccnc4)c3c2)c(Cl)c1` [Example 323, 6-((2-chloro-4-methylphenyl)amino)-N,N-dimethyl-1-(pyridin-3-ylsulfonyl)-1H-indol-3-carboxamide], 4.70; under `COc1ccc(Nc2ccc3c(C(=O)N(C)C)cn(S(=O)(=O)c4cccnc4)c3c2)c(F)c1` [Example 324, 6-((2-fluoro-4-methoxyphenyl)amino)-N,N-dimethyl-1-(pyridin-3-ylsulfonyl)-1H-indol-3-carboxamide], 4.70. Under `CN(C)C(=O)c1cn(S(=O)(=O)c2cccnc2)c2cc(Nc3ccc(C(F)(F)F)cc3Cl)ccc12` [Example 325, 6-((2-chloro-4-(trifluoromethyl)phenyl)amino)-N,N-dimethyl-1-(pyridin-3-ylsulfonyl)-1H-indol-3-carboxamide] stands 4.17; under `Cc1cc(OC(F)(F)F)ccc1Nc1ccc2c(C(=O)N(C)C)cn(S(=O)(=O)c3cccnc3)c2c1` [Example 326, N,N-dimethyl-6-((2-methyl-4-(trifluoromethoxy)phenyl)amino)-1-(pyridin-3-ylsulfonyl)-1H-indol-3-carboxamide], 4.43.

On to `CN(C)C(=O)c1cn(S(=O)(=O)c2cccnc2)c2cc(Nc3ccc(OC(F)(F)F)cc3Cl)ccc12` [Example 327, 6-((2-chloro-4-(trifluoromethoxy)phenyl)amino)-N,N-dimethyl-1-(pyridin-3-ylsulfonyl)-1H-indol-3-carboxamide], for which the pIC50 is 4.40. `COc1cc(OC(F)(F)F)ccc1Nc1ccc2c(C(=O)N(C)C)cn(S(=O)(=O)c3cccnc3)c2c1` [Example 328, 6-((2-methoxy-4-(trifluoromethoxy)phenyl)amino)-N,N-dimethyl-1-(pyridin-3-ylsulfonyl)-1H-indol-3-carboxamide]: the pIC50 is 5.30. In turn, `Cc1ccc(Nc2ccc3c(C(=O)N(C)C)cn(S(=O)(=O)c4cccnc4)c3c2)c(F)c1F` [Example 329, 6-((2,3-difluoro-4-methylphenyl)amino)-N,N-dimethyl-1-(pyridin-3-ylsulfonyl)-1H-indol-3-carboxamide] showed a pIC50 of 4.38. As for `Cc1ccc(Nc2ccc3c(C(=O)N(C)C)cn(S(=O)(=O)c4cccnc4)c3c2)c(Cl)n1` [Example 330, 6-((2-chloro-6-methylpyridin-3-yl)amino)-N,N-dimethyl-1-(pyridin-3-ylsulfonyl)-1H-indol-3-carboxamide], the pIC50 was 4.66. The same measure for `CN(C)C(=O)c1cn(S(=O)(=O)c2cccnc2)c2cc(Nc3ccc(Cl)nc3Cl)ccc12` [Example 331, 6-((2,6-dichloropyridin-3-yl)amino)-N,N-dimethyl-1-(pyridin-3-ylsulfonyl)-1H-indol-3-carboxamide]: 4.15.

Regarding `COc1ccc(Nc2ccc3c(C(=O)N(C)C)cn(S(=O)(=O)c4cccnc4)c3c2)c(Cl)n1` [Example 332, 6-((2-chloro-6-methoxypyridin-3-yl)amino)-N,N-dimethyl-1-(pyridin-3-ylsulfonyl)-1H-indol-3-carboxamide], the pIC50 was 4.22. This pIC50 and that of the compound before are within 0.2 log units of each other. Consider `CNc1cn(S(=O)(=O)c2cccnc2)c2cc(Nc3ccc(C)cc3F)ccc12` [Example 333, N6-(2-fluoro-4-methylphenyl)-N3-methyl-1-(pyridin-3ylsulfonyl)-1H-indol-3,6-diamine hydrochloride], for which the pIC50 was 5.23. The same measure for `COC(=O)c1cn(S(=O)(=O)c2cccnc2)c2cc(-c3ccc(OC)cc3)ccc12` [Example 335, methyl 6-(4-methoxyphenyl)-1-(pyridin-3-ylsulfonyl)-1H-indol-3-carboxylate]: 5.87.
